# Experimental data as given in article PMC9399405, “CD8 T cell function and cross-reactivity explored by stepwise increased peptide-HLA versus TCR affinity” (Frontiers in Immunology, 2022).
# System: HLA-A2
# Assay: Blue peptide (Cy5-labeled HBVc) kinetic and isotherm determination
# Format: binding, human
# Method: In short, for kon measurements on T2 (HLA-A2^pos) and C1R-A3 (HLA-A2^neg) cells, baseline Cy5 cell auto-fluorescence was recorded for 30s with an LSRII instrument. Titrated amounts of Cy5-labeled HBVc blue peptide (from 1 pM to 1 uM final concentration) were then added to the tube and association of the blue peptide to HLA-A2 was recorded for 5 minutes. For koff dissociation assays, 2x10^6 HLA-A2^pos (T2) and HLA-A2^neg (C1R-A3) cells were stained with 1 μM blue peptide and incubated for 1h in the dark. After washing, baseline Cy5 staining was recorded for 30s, before adding excess of FACS buffer and recording fluorescence intensity (gMFI) for 1h under temperature control. Additionally, isotherm titration experiments were performed to validate the value of the blue peptide dissociation equilibrium constant KD. Cells were stained with titrated amounts of the blue peptide (from 1 pM to 1 uM) for 1h at 4°C or 37°C. After washing, Cy5 gMFI was recorded on an LSRII instrument to determine concentration-associated maximal staining at equilibrium conditions (n = 5). All kinetic and isotherm analyses were done with the corresponding best fit equations using Prism software (GraphPad, v.9.1.1) and correction of non-specific staining values found on control HLA-A2^neg cells (nonlinear regression for kon = association kinetics - one conc. of ligand, for koff = dissociation/one phase exponential decay and for KD = one site - total and nonspecific binding).
# [1] = HLA-A2pos and HLA-A2neg cells in parallel, flow cytometry
substance,measurement,setting,value
FLPSDC*-(Cy5)-FPSV [blue peptide],peptide:HLA association kon,[1],23000 M⁻¹ s⁻¹
same,peptide:HLA dissociation koff,[1],0.0012 s⁻¹
same,Kd,"T2 (HLA-A2pos) vs C1R-A3 (HLA-A2neg) cells, isotherm titration 1 pM to 1 uM, 1h, n = 5, read-out: equilibrium dissociation constant KD for HLA-A2",52.6 nM
